The target of the experiment is PI3Kδ (Homo sapiens (Human), UniProt O00329). It is filed as biochemical. The conditions noted are these: PI3Kδ Alphascreen assay. A general note: Alpha assays give light when donor and acceptor beads are brought close together.
Sequence of PI3Kδ (O00329 whole entry): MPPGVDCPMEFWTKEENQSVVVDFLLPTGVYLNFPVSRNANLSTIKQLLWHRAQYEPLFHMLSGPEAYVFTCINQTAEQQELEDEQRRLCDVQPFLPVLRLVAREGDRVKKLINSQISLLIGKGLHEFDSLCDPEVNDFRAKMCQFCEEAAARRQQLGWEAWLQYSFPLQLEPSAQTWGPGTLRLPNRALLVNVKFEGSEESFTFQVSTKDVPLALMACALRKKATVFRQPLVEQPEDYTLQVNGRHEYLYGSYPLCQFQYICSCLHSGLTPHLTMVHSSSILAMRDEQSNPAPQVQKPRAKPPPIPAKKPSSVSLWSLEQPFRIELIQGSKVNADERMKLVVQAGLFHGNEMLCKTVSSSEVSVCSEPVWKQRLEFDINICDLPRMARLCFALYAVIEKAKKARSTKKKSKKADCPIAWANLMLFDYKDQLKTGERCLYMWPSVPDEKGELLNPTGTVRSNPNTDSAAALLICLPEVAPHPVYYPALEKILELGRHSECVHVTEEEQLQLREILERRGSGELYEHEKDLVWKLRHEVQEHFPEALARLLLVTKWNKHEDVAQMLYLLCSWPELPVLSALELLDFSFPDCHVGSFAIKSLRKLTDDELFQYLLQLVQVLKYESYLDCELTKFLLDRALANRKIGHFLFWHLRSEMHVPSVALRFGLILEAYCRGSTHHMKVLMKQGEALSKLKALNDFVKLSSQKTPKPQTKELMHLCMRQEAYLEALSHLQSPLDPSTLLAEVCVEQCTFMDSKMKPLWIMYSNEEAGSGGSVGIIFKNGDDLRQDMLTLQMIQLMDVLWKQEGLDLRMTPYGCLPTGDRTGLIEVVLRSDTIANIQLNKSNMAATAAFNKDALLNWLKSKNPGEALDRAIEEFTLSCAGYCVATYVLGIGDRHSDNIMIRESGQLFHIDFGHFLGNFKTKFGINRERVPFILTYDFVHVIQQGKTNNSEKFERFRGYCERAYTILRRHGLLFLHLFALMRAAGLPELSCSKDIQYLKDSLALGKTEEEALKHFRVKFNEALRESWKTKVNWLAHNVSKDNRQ
Sequence of PI3Kδ (P27986 whole entry partner): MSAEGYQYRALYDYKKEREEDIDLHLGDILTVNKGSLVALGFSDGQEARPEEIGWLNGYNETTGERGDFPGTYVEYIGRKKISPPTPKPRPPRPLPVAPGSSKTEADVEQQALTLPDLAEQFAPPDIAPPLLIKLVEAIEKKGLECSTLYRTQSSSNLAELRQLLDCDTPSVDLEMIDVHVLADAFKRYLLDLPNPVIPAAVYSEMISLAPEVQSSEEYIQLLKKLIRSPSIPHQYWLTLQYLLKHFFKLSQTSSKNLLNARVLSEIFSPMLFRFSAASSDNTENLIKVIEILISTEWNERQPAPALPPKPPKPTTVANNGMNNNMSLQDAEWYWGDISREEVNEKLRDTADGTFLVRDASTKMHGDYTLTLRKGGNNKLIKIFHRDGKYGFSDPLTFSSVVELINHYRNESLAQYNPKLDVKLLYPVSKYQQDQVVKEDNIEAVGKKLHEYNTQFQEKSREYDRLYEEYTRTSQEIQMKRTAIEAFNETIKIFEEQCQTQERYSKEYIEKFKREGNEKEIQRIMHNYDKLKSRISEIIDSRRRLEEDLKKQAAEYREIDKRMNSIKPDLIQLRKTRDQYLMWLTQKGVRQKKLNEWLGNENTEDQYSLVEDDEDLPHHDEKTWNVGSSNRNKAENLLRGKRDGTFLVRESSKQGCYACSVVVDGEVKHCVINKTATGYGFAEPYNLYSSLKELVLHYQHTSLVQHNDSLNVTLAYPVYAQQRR
The term Ki denotes a measure of affinity in units of concentration, obtained from inhibition or displacement. `Cc1c(-c2ccccc2F)nc2cc(F)ccc2c1N1CC2(CCOCC2)c2ccc(N3CCOCC3)cc21` [1-(7-fluoro-2-(2-fluorophenyl)-3-methyl-4-quinolinyl)-6-(4-morpholinyl)-1,2,2′,3′,5′,6′-hexahydrospiro[indole-3,4′-pyran]]: the inhibition constant (Ki) was found to be 25.4 nM.
As for `Cc1nc2c(C)cc(Cl)cc2c(N2CC(C)(C)c3ccc(N4CCOCC4)cc32)c1C` [6-chloro-4-(3,3-dimethyl-6-(4-morpholinyl)-2,3-dihydro-1H-indol-1-yl)-2,3,8-trimethylquinoline], the Ki is 618 nM.
Molecule `COc1cc(N2CCOCC2)cc2c1ccn2-c1c(C)c(C)nc2ccc(Cl)cc12` [6-chloro-4-(4-methoxy-6-(4-morpholinyl)-1H-indol-1-yl)-2,3-dimethylquinoline] had an inhibition constant Ki of 3710 nM.
As to `Cc1c(C2CC2)nc2ncccc2c1N1CC(C)(C)c2ncc(N3CCOCC3)cc21` [2-cyclopropyl-4-(3,3-dimethyl-6-(4-morpholinyl)-2,3-dihydro-1H-pyrrolo[3,2-b]pyridin-1-yl)-3-methyl-1,8-naphthyridine], the Ki was found to be 32 nM.
Turning to `Cc1nc2ccc(Cl)cc2c(-n2ccc3c(O)cc(-c4cn[nH]c4)cc32)c1C` [1-(6-chloro-2,3-dimethyl-4-quinolinyl)-6-(1H-pyrazol-4-yl)-1H-indol-4-ol], the Ki was 4110 nM.
`Cc1c(CCc2ccccc2)nc2cc(F)cc(F)c2c1N1CC(C)(C)c2ncc(N3CCOCC3)cc21` [4-(3,3-dimethyl-6-(4-morpholinyl)-2,3-dihydro-1H-pyrrolo[3,2-b]pyridin-1-yl)-5,7-difluoro-3-methyl-2-(2-phenylethyl)quinoline]: the affinity corresponds to a Ki of 8.12 nM.
In the case of `Cc1c(-c2cc(C(F)(F)F)cc(C(F)(F)F)c2)nc2cccc(F)c2c1N1CC(C)(C)c2ccc(N3CCOCC3)cc21` [2-(3,5-bis(trifluoromethyl)phenyl)-4-(3,3-dimethyl-6-(4-morpholinyl)-2,3-dihydro-1H-indol-1-yl)-5-fluoro-3-methylquinoline] it was 3780 nM; in that of `Cc1ccc(S(C)(=O)=O)c(-c2nc3cc(F)cc(F)c3c(N3CC4(CCOCC4)c4ncc(N5CCOCC5)cc43)c2C)c1` [1′-(5,7-difluoro-3-methyl-2-(5-methyl-2-(methylsulfonyl)phenyl)-4-quinolinyl)-6′-(4-morpholinyl)-1′,2,2′,3,5,6-hexahydrospiro[pyran-4,3′-pyrrolo[3,2-b]pyridine]], 1.51 nM.
Molecule `Cc1c(-c2ccccn2)nc2c(C)ccc(F)c2c1N1CC(C)(C)c2ncc(N3CCOCC3)cc21` [4-(3,3-dimethyl-6-(4-morpholinyl)-2,3-dihydro-1H-pyrrolo[3,2-b]pyridin-1-yl)-5-fluoro-3,8-dimethyl-2-(2-pyridinyl)quinoline] yielded a Ki of 4.07 nM.
The molecule `Cc1nc2ccc(Cl)cc2c(-n2ccc3c(C#N)cc(-c4ccncc4)cc32)c1C` [1-(6-chloro-2,3-dimethyl-4-quinolinyl)-6-(4-pyridinyl)-1H-indole-4-carbonitrile] returned a Ki of 1480 nM.
For `Cc1c(-c2ccc3c(ccn3C)c2)nc2cc(F)cc(F)c2c1N1CC(C)(C)c2ncc(N3CCOCC3)cc21` [4-(3,3-dimethyl-6-(4-morpholinyl)-2,3-dihydro-1H-pyrrolo[3,2-b]pyridin-1-yl)-5,7-difluoro-3-methyl-2-(1-methyl-1H-indol-5-yl)quinoline], the Ki amounted to 195 nM.
With `Cc1c(-c2ccccn2)nc2cccc(F)c2c1N1CC2(CCOCC2)c2ncc(N3CCOCC3)cc21` [1′-(5-fluoro-3-methyl-2-(2-pyridinyl)-4-quinolinyl)-6′-(4-morpholinyl)-1′,2,2′,3,5,6-hexahydrospiro[pyran-4,3′-pyrrolo[3,2-b]pyridine]] the figure was 6.48 nM.
`Cc1c(-c2ccccc2F)nc2ccccc2c1N1CC(C)(C)c2ccc(N3CCOCC3)cc21` [4-(3,3-dimethyl-6-(4-morpholinyl)-2,3-dihydro-1H-indol-1-yl)-2-(2-fluorophenyl)-3-methylquinoline] displayed a Ki of 47 nM.
The molecule `Cc1c(-c2ccccn2)nc2cc(F)ccc2c1N1CC2(CS(=O)(=O)C2)c2ccc(N3CCOCC3)cc21` [1-(7-fluoro-3-methyl-2-(2-pyridinyl)-4-quinolinyl)-6-(4-morpholinyl)-1,2-dihydrospiro[indole-3,3′-thietane] 1′,1′-dioxide] yielded a Ki of 80.5 nM.
For the molecule `Cc1c(-c2ccccc2S(C)(=O)=O)nc2cc(F)cc(F)c2c1N1CC2(CCOCC2)c2ncc(N3CCOCC3)cc21` [1′-(5,7-difluoro-3-methyl-2-(2-(methylsulfonyl)phenyl)-4-quinolinyl)-6′-(4-morpholinyl)-1′,2,2′,3,5,6-hexahydrospiro[pyran-4,3′-pyrrolo[3,2-b]pyridine]], the Ki is 4.51 nM.
`Cc1c(-c2ccccn2)nc2ncccc2c1N1CCOc2ccc(N3CCOCC3)cc21` [4-(3-methyl-2-(2-pyridinyl)-1,8-naphthyridin-4-yl)-6-(4-morpholinyl)-3,4-dihydro-2H-1,4-benzoxazine]: the Ki was 883 nM.
In the case of `COc1cc2nc(C)c(C)c(N3CC4(CCOCC4)c4ccc(Br)cc43)c2cc1Cl` [6-bromo-1-(6-chloro-7-methoxy-2,3-dimethyl-4-quinolinyl)-1,2,2′,3′,5′,6′-hexahydrospiro[indole-3,4′-pyran]] it was 571 nM.
In the case of `Cc1c(Cc2cccc(C#N)c2)nc2cc(F)cc(F)c2c1N1CC(C)(C)c2ncc(N3CCOCC3)cc21` [3-((4-(3,3-dimethyl-6-(4-morpholinyl)-2,3-dihydro-1H-pyrrolo[3,2-b]pyridin-1-yl)-5,7-difluoro-3-methyl-2-quinolinyl)methyl)benzonitrile], affinity was put at a Ki of 2.68 nM.
`COc1cc2nc(C)c(C)c(N3CC(C)(C)c4ccc(N5CCOCC5)cc43)c2cc1Cl` [6-chloro-4-(3,3-dimethyl-6-(4-morpholinyl)-2,3-dihydro-1H-indol-1-yl)-7-methoxy-2,3-dimethylquinoline] gave a Ki of 196 nM.
With `Cc1nc2ccc(Cl)cc2c(N2CC3(CCOCC3)c3ccc(N4CCOCC4)cc32)c1C` [1-(6-chloro-2,3-dimethyl-4-quinolinyl)-6-(4-morpholinyl)-1,2,2′,3′,5′,6′-hexahydrospiro[indole-3,4′-pyran]] the figure was 73 nM.
In the case of `Cc1c(-c2ccccn2)nc2cc(F)ccc2c1N1CC2(CCOCC2)c2nc(Cl)c(N3CCOCC3)cc21` [5′-chloro-1′-(7-fluoro-3-methyl-2-(2-pyridinyl)-4-quinolinyl)-6′-(4-morpholinyl)-1′,2,2′,3,5,6-hexahydrospiro[pyran-4,3′-pyrrolo[3,2-b]pyridine]] it was 13.3 nM; in that of `CCc1c(C)nc2ccc(Cl)cc2c1N1CC(C)(C)c2ccc(N3CCOCC3)cc21` [6-chloro-4-(3,3-dimethyl-6-(4-morpholinyl)-2,3-dihydro-1H-indol-1-yl)-3-ethyl-2-methylquinoline], 1130 nM.
As to `Cc1cc(Cl)c2nc(C)c(C)c(N3CC(C)(C)c4ccc(N5CCOCC5)cc43)c2c1` [8-chloro-4-(3,3-dimethyl-6-(4-morpholinyl)-2,3-dihydro-1H-indol-1-yl)-2,3,6-trimethylquinoline], the Ki turned out to be 3180 nM.
In the case of `COc1cc2nc(C)c(C)c(N3CCS(=O)(=O)c4ccc(N5CCOCC5)cc43)c2cc1Cl` [4-(6-chloro-7-methoxy-2,3-dimethyl-4-quinolinyl)-6-(4-morpholinyl)-3,4-dihydro-2H-1,4-benzothiazine 1,1-dioxide] it was 28 nM.
Consider `Cc1c(-c2cccc(O)n2)nc2cc(F)ccc2c1N1CC2(CCOCC2)c2ccc(N3CCOCC3)cc21` [6-(7-fluoro-3-methyl-4-(6-(4-morpholinyl)-2′,3′,5′,6′-tetrahydrospiro[indole-3,4′-pyran]-1(2H)-yl)-2-quinolinyl)-2-pyridinol], for which the Ki was found to be 155 nM.
The molecule `COc1cc2nc(C)c(C)c(N3CC(C)(C)c4ccc(N5CCOCC5)c(C)c43)c2cc1Cl` [6-chloro-7-methoxy-2,3-dimethyl-4-(3,3,7-trimethyl-6-(4-morpholinyl)-2,3-dihydro-1H-indol-1-yl)quinoline] gave a Ki of 3960 nM.
In turn, `Cc1c(N2CCCCC2)nc2cc(F)cc(F)c2c1N1CC(C)(C)c2ccc(N3CCOCC3)cc21` [4-(3,3-dimethyl-6-(4-morpholinyl)-2,3-dihydro-1H-indol-1-yl)-5,7-difluoro-3-methyl-2-(1-piperidinyl)quinoline] yielded a Ki of 73.7 nM.
Molecule `Cc1c(-c2cc(F)cc(F)c2)nc2ncccc2c1N1CC(C)(C)c2ncc(N3CCOCC3)cc21` [2-(3,5-difluorophenyl)-4-(3,3-dimethyl-6-(4-morpholinyl)-2,3-dihydro-1H-pyrrolo[3,2-b]pyridin-1-yl)-3-methyl-1,8-naphthyridine] gave a Ki of 3.11 nM.
With `Cc1ccnc(-c2nc3cc(F)ccc3c(N3CC(C)(C)c4ncc(N5CCOCC5)cc43)c2C)c1` [4-(3,3-dimethyl-6-(4-morpholinyl)-2,3-dihydro-1H-pyrrolo[3,2-b]pyridin-1-yl)-7-fluoro-3-methyl-2-(4-methyl-2-pyridinyl)quinoline], the affinity, expressed as Ki, was 4.17 nM.
Consider `Cc1c(-c2ccccn2)nc2cc(F)ccc2c1N1CC(C)(C)c2ccc(-c3nc(N)ncc3Cl)cc21` [5-chloro-4-(1-(7-fluoro-3-methyl-2-(2-pyridinyl)-4-quinolinyl)-3,3-dimethyl-2,3-dihydro-1H-indol-6-yl)-2-pyrimidinamine], for which the affinity corresponds to a Ki of 1430 nM.
With `Cc1c(N2CCCC2=O)nc2cc(F)cc(F)c2c1N1CC(C)(C)c2ncc(N3CCOCC3)cc21` [1-(4-(3,3-dimethyl-6-(4-morpholinyl)-2,3-dihydro-1H-pyrrolo[3,2-b]pyridin-1-yl)-5,7-difluoro-3-methyl-2-quinolinyl)-2-pyrrolidinone] the figure was 1.54 nM; with `Cc1cc(C)cc(-c2nc3cc(F)ccc3c(N3CC4(CCOCC4)c4ncc(N5CCOCC5)cc43)c2C)c1` [1′-(2-(3,5-dimethylphenyl)-7-fluoro-3-methyl-4-quinolinyl)-6′-(4-morpholinyl)-1′,2,2′,3,5,6-hexahydrospiro[pyran-4,3′-pyrrolo[3,2-b]pyridine]], 12.1 nM.
Regarding `Cc1c(-c2cc(F)cc(F)c2)nc2cnccc2c1N1CC2(CCOCC2)c2ncc(N3CCOCC3)cc21` [1′-(2-(3,5-difluorophenyl)-3-methyl-1,7-naphthyridin-4-yl)-6′-(4-morpholinyl)-1′,2,2′,3,5,6-hexahydrospiro[pyran-4,3′-pyrrolo[3,2-b]pyridine]], the affinity corresponds to a Ki of 13.4 nM.

The values are drawn from patent US8765940B2 (priority 2009, dated 2014).
